As a reminder, the mass density is mass per unit of volume. Broadly, the viscosity is the resistance of a fluid to flow. What is called speed of sound is how fast a sound wave travels through the sample. One may read the refractive index as a measure of how strongly the sample bends light.

Numbers after ± are expanded uncertainties.

The conditions of data set [1]: 101 kPa, Liquid; for speed of sound: Sing-around technique in a fixed-path interferometer.
Data set [2] is described as follows: refractive index (Na D-line) (dimensionless). As to conditions: 101.33 kPa, Liquid.

In the case of `CC1CCCCC1` [methylcyclohexane], the mass density in data set [1] (298.15 K) amounted to 765 ± 0.9 kg/m3; in data set [1] (303.15 K), 760.7 ± 0.9 kg/m3; in data set [1] (308.15 K), 756.3 ± 0.9 kg/m3. The viscosity in data set [1] (298.15 K) was found to be 0.676 ± 0.009 mPa·s; in data set [1] (303.15 K), 0.631 ± 0.009 mPa·s; in data set [1] (308.15 K), 0.59 ± 0.008 mPa·s. Also, the speed of sound in data set [1] (298.15 K) worked out at 1217 ± 5 m/s. Further, the refractive index in data set [2] (298.15 K) was 1.4217 ± 0.001; in data set [2] (303.15 K), 1.4192 ± 0.001; in data set [2] (308.15 K), 1.4163 ± 0.001.

Regarding `Cc1ccccc1` [toluene], the figures for the mass density in data set [1] (298.15 K), in data set [1] (303.15 K) and in data set [1] (308.15 K) were 862.3 ± 0.5 kg/m3, 857.6 ± 0.6 kg/m3 and 852.9 ± 0.6 kg/m3, respectively. Also, the viscosity in data set [1] (298.15 K) is listed as 0.559 ± 0.008 mPa·s; in data set [1] (303.15 K), 0.526 ± 0.007 mPa·s; in data set [1] (308.15 K), 0.497 ± 0.007 mPa·s. Besides, in data set [1] (298.15 K), the speed of sound is listed as 1314 ± 5 m/s. Further, the refractive index in data set [2] (298.15 K) was found to be 1.4931 ± 0.0009; in data set [2] (303.15 K), 1.4902 ± 0.0009; in data set [2] (308.15 K), 1.4874 ± 0.0009.

The values are drawn from the NIST ThermoML archive (doi:10.1016/j.jct.2005.12.005).
